{
  "source": "patent US9517244B2",
  "about": "“Therapeutic combinations for use in neoplasia” (University of Florida Research Foundation, Inc., priority 2011, dated 2016)",
  "key": {"BxPC3": {"test_system": "BxPC3", "assay": "MTT assay, pancreatic cancer cell line", "type": "cell-based, human", "conditions": "Homo sapiens, BXPC-3; BxPC3 (dFdC-sensitive); single agent; 72 h; read-out: IC50"}, "HPAC": {"test_system": "HPAC", "assay": "MTT assay, pancreatic cancer cell line", "type": "cell-based, human", "conditions": "Homo sapiens; HPAC (dFdC-sensitive); single agent; 72 h; read-out: IC50"}, "APE1": {"molecular_target": "APE1 (Homo sapiens, UniProt P27695)", "sequence (P27695 whole entry)": "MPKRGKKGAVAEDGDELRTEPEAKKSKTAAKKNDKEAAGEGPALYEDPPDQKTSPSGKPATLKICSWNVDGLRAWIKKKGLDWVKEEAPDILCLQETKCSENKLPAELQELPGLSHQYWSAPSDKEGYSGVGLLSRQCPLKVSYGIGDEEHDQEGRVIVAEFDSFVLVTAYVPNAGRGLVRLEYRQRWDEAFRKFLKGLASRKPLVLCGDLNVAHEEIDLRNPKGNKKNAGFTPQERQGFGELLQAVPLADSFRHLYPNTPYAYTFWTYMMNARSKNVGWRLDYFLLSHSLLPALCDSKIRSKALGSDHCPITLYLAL", "assay": "in vitro APE1 activity assay with purified APE1 and 32P-labeled 63-mer F-DNA", "type": "biochemical", "source_text": "FIGS. 4A and 4B depict the screening of small molecules. FIG. 4A depicts an in vitro assay system to determine the effect of compounds on the blockage of APE1-activity using purified APE1 and ^32P-labeled 63-mer F-DNA. FIG. 4B is a gel depicting the effect of the small molecules on APE1 activity. […] Data are representative of duplicate experiments.\nFIG. 5A depicts an in vitro assay protocol using purified APE1 protein. FIG. 5B is an image of a gel showing a dose-dependent effect of NSC-30049 on APE1 activity. […] FIG. 5C is a graph depicting the percent cleavage and the IC50 of NSC-30049 to block APE1 activity, showing that APE1 is blocked in a dose-dependent manner. Data is mean±SE of three different experiments.\nTo determine the effect of compounds on the blockage of APE1 activity, an in vitro assay system was developed using purified APE1 and ^32P-labeled 63-mer F-DNA (FIG. 4A). Several small molecules (NSC-9746, NSC-18468, NSC-2137, NAC-30049 and NSC-32895) were screened for their ability to inhibit APE1 activity in the in vitro assay (FIG. 4B)."}, "[1]": {"test_system": "CD133, Nanog, Oct4, Sox2 expression in human parental cancer cells", "assay": "qRT-PCR of self-renewal marker genes in parental cancer cells", "type": "cell-based", "conditions": "1.25 μM NSC-30049 + 1.25 μM OPT, 72 h, compared to either alone", "method": "Cells were treated with 1.25 μM of NSC-30049 and 1.25 μM of OPT either alone or in combination for 72 h. Data are mean±SD of triplicate experiments. FIG. 9B depicts the inhibition in expression of self-renewal marker genes of colon cancer stem cells, qRT-PCR data of CD133+, Oct4, Sox2 and Nanog gene expression levels of parental cancer cells and colon cancer stem cells was obtained. Cells were treated with 1.25 μM of NSC-30049 and 1.25 μM of OPT either alone or in combination for 72 h. Fold change in gene expression values is shown as mean±SD of three experiments and are normalized to GAPDH gene expression.\nWithout being bound to a particular theory, the effect of administration of NSC-30049 in combination with oxaliplatin (OPT) on the expression of self-renewal marker genes of colon cancer stem cells was analyzed. Self-renewal marker genes are highly expressed in colon cancer stem cells compared to human parental cancer cells. qRT-PCR data of CD133+, Oct4, Sox2 and Nanog gene expression levels of parental cancer cells and colon cancer stem cells was obtained (FIG. 9B). Cells were treated with 1.25 μM of NSC-30049 and 1.25 μM of OPT either alone or in combination for 72 h. The fold change in gene expression values is shown as mean±SD of three experiments and were normalized to GAPDH gene expression. […]"}, "[2]": {"test_system": "Aldh1a1 and Aldh1a7 expression in GBM-L0 stem cells", "assay": "qRT-PCR of aldehyde dehydrogenase genes in GBM-L0 stem cells", "type": "cell-based", "conditions": "36 h", "method": "Cells were pretreated with 2.5 μM of NSC30049 or 10 or 100 μM TMZ alone or in combination with NSC-30049 for 36 h. Then, total RNA was isolated and processed for gRT-PCR. Data presented are the mean±SE of three different measurements. […] Treatment with NSC-30049 or TMZ reduced the expression of aldehyde dehydrogenase gene Aldh1a7 in GBM-LO stem cell line in vitro, but not treatment with NSC-30049 and TMZ. Cells were pretreated with 2.5 μM of NSC30049 or 10 or 100 μM of TMZ alone or in combination with NSC-30049 for 36 h. Then, total RNA was isolated and processed for qRT-PCR. Data presented are the mean±SE of three different measurements.\nWithout being bound to a particular theory, the effect of administration of NSC-30049 in combination with temozolomide (TMZ) on the expression of self-renewal marker genes of […] was analyzed. Self-renewal marker genes are highly expressed in colon cancer stem cells compared to human parental cancer cells. qRT-PCR data of CD133+, Oct4, Sox2 and Nanog gene expression levels of GBM-L0 stem cells was obtained (FIG. 14A). Cells were pretreated with 2.5 μM of NSC30049 or 10 or 100 μM of TMZ alone or in combination with NSC-30049 for 36 h. Then, total RNA was isolated and processed for qRT-PCR. Data presented are the mean±SE of three different measurements. […]"}, "DNA ligase I": {"molecular_target": "DNA ligase I (Homo sapiens, UniProt P18858)", "sequence (P18858 whole entry, species assumed)": "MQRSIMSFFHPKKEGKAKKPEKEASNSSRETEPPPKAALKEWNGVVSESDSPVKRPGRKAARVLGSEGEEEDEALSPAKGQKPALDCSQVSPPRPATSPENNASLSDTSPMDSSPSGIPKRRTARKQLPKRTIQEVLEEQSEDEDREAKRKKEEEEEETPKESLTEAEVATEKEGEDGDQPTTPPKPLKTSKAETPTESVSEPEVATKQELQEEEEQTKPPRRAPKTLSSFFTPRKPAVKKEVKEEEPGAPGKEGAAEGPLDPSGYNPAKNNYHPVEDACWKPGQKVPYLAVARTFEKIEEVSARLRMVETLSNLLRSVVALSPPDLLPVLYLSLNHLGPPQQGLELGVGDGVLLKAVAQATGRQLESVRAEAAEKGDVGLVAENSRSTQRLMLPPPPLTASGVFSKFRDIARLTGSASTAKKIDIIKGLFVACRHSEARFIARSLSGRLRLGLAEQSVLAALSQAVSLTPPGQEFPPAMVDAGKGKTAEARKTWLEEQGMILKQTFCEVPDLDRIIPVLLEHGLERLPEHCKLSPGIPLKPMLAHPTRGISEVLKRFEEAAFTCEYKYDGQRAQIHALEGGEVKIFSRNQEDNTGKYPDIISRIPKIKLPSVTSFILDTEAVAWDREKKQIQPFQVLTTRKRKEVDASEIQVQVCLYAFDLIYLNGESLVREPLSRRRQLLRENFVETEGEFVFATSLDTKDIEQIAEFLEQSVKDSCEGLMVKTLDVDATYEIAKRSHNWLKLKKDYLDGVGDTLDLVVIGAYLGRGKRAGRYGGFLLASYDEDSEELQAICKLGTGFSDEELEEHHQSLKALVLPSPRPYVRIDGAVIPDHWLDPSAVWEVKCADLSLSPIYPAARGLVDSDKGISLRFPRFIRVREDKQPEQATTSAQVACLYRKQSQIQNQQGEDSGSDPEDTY", "assay": "DNA ligase I activity in vitro", "type": "biochemical", "conditions": "DNA ligase I 1 nM", "method": "(§1) Lanes 4-7 contained increasing concentrations of NSC-30049 (0.5, 1, 2.5, and 5 μM, respectively). The arrows indicate the positions of the 63-mer substrate and the products. […] Data are representative of three different experiments."}, "colon cancer stem cells": {"test_system": "colon cancer stem cells", "assay": "cell growth inhibition of colon cancer stem cells", "type": "cell-based, human", "conditions": "Homo sapiens, 72 h", "method": "Cells were treated with 1.25 μM of NSC-30049 and 1.25 μM of OPT either alone or in combination for 72 h. Data are mean±SD of triplicate experiments. […] Cells were treated with 1.25 μM of NSC-30049 and 1.25 μM of OPT either alone or in combination for 72 h. Fold change in gene expression values is shown as mean±SD of three experiments and are normalized to GAPDH gene expression.\nThe effect of administration of NSC-30049 in combination with oxaliplatin (OPT) was also examined in human parental cancer cells and colon cancer stem cells (FIG. 9A). Cells were treated with 1.25 μM of NSC-30049 and […] of OPT either alone or in combination for 72 h. Cell growth inhibition was assayed. Data presented are mean±SD of triplicate experiments."}, "Fen1": {"molecular_target": "Fen1 (Homo sapiens, UniProt P39748)", "sequence (P39748 whole entry, species assumed)": "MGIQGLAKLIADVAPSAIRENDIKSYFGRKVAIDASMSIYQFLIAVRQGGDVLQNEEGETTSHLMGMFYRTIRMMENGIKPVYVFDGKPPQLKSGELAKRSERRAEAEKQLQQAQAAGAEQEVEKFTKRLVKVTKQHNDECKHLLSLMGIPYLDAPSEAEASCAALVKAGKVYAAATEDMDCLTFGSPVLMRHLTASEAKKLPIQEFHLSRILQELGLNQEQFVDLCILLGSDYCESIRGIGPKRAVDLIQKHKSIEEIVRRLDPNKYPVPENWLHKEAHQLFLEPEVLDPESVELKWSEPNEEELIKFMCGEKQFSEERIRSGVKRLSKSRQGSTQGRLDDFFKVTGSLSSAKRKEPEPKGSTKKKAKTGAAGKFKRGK", "assay": "Fen1 activity in vitro", "type": "biochemical", "conditions": "0.5-5 μM; Fen1 1 nM", "method": "as §1"}},
  "data": [
    {"smiles": "ClCC=CC[N+]12CN3CN(CN(C3)C1)C2", "note": "[NSC-30049, 1-(4-Chloro-2-butenyl)-1λ˜5˜,3,5,7-tetraazatricyclo[3.3.1.1˜3,7˜]decane]", "values": [
      {"measurement": "IC50", "setting": "BxPC3", "result": "3.87 ± 0.24", "unit": "µM"},
      {"measurement": "IC50", "setting": "HPAC", "result": "4.44 ± 0.28", "unit": "µM"},
      {"measurement": "inhibition of APE1 activity in screen", "setting": "APE1; 5, 10, 20 and 40 μM", "result": "inhibit APE1 activity in the in vitro assay at all concentrations tested"},
      {"measurement": "IC50", "setting": "APE1; purified APE1, read-out: IC50 to block APE1 activity", "result": 0.0072, "unit": "µM"},
      {"measurement": "expression of CD133, Nanog, Oct4, and Sox2", "setting": "[1]", "result": "inhibited the expression of CD133, Nanog, Oct4, and Sox2 in human parental cancer cells"},
      {"measurement": "expression of Aldh1a1", "setting": "[2]; 2.5 μM NSC-30049 + 10 or 100 μM TMZ", "result": "significantly inhibited the expression of Aldh1a1"},
      {"measurement": "expression of Aldh1a7", "setting": "[2]; agent alone", "result": "inhibited"},
      {"measurement": "effect on DNA ligase I activity", "setting": "DNA ligase I", "result": "did not affect DNA ligase I activity"},
      {"measurement": "inhibition at 1.25 µM", "setting": "colon cancer stem cells; 1.25 μM NSC-30049 in combination with 1.25 μM oxaliplatin", "result": "~80", "unit": "%"},
      {"measurement": "inhibition at 1.25 µM", "setting": "colon cancer stem cells; alone, 1.25 μM", "result": "~10", "unit": "%"},
      {"measurement": "effect on Fen1 activity", "setting": "Fen1", "result": "did not affect Fen1 activity"}
    ]}
  ]
}
